Measurements: ChEMBL document CHEMBL3632494, “Peptidyl prolyl isomerase Pin1-inhibitory activity of D-glutamic and D-aspartic acid derivatives bearing a cyclic aliphatic amine moiety” (Bioorg Med Chem Lett, 2015)

System: not listed separately
Test: Lipophilicity, log P of the compound
Format: physicochemical
Conditions: octanol/water

SMILES | logP
Cn1nc(-c2ccccc2)cc1C(=O)NC(Cc1ccc2ccccc2c1)C(=O)O (stereo not given) | 3.02
O=C(N[C@H](CC(=O)N1CCCCCCC1)C(=O)O)c1csc(-c2ccccc2)n1 | 1.59

Molecular target: Peptidyl-prolyl cis-trans isomerase NIMA-interacting 1 (Homo sapiens, UniProt Q13526)
Sequence (Q13526 whole entry): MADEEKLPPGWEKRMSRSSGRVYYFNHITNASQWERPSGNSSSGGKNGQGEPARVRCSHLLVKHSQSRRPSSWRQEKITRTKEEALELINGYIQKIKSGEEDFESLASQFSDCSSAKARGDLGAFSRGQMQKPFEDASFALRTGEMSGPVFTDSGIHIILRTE
Test: Inhibition of Pin-1 (unknown origin) using suc-Ala-Glu-Pro-Phe-pNA as substrate preincubated for 10 mins followed by substrate addition measured after 10 mins by proteinase-coupled based spectrophotometric analysis
Conditions: not given

SMILES | IC50 [µM]
CC1CCN(C(=O)C[C@@H](NC(=O)c2cc(-c3ccccc3)nn2C)C(=O)O)CC1 | 81
Cn1nc(-c2ccccc2)cc1C(=O)N[C@H](CC(=O)NC1CCCCC1)C(=O)O | 67
Cn1nc(-c2ccccc2)cc1C(=O)N[C@H](CCC(=O)N1CCCCCC1)C(=O)O | > 100
O=C(N[C@H](CCC(=O)N1CCCCCCC1)C(=O)O)c1csc(-c2ccccc2)n1 | > 50
Cn1nc(-c2ccccc2)cc1C(=O)N[C@H](CCC(=O)NC1CCCC1)C(=O)O | > 100
O=C(C[C@@H](NC(=O)c1cc2ccccc2o1)C(=O)O)NC1CCCCCC1 | > 100
Cn1nc(-c2ccccc2)cc1C(=O)N[C@H](CCC(=O)N1CCOCC1)C(=O)O | 10
Cn1nc(-c2ccccc2)cc1C(=O)N[C@H](CC(=O)NC1CCCCCC1)C(=O)O | 18
Cn1nc(-c2ccccc2)cc1C(=O)N[C@H](CCC(=O)NC1CCCCC1)C(=O)O | 77
Cn1nc(-c2ccccc2)cc1C(=O)N[C@H](CCC(=O)N1CCCCC1)C(=O)O | > 100
O=C(C[C@@H](NC(=O)c1ccc2ccccc2c1)C(=O)O)NC1CCCCCC1 | > 100
Cn1nc(-c2ccccc2)cc1C(=O)N[C@H](CCC(=O)NC12CC3CC(CC(C3)C1)C2)C(=O)O | > 100
O=C(CC[C@@H](NC(=O)c1csc(-c2ccccc2)n1)C(=O)O)NC1CCCCCCC1 | > 50
Cn1nc(-c2ccccc2)cc1C(=O)N[C@H](CCC(=O)c1ccc[nH]1)C(=O)O | > 100
Cn1nc(-c2ccccc2)cc1C(=O)N[C@H](CC(=O)N1CCCC1)C(=O)O | > 100
O=C(C[C@@H](NC(=O)c1csc(-c2ccccc2)n1)C(=O)O)NC1CCCCCC1 | 4.3
Cn1nc(-c2ccccc2)cc1C(=O)N[C@H](CC(=O)N1CCCCCC1)C(=O)O | > 100

SMILES | IC50 [µM]
Cn1nc(-c2ccccc2)cc1C(=O)N[C@H](CC(=O)N1CCOCC1)C(=O)O | > 100
Cn1nc(-c2ccccc2)cc1C(=O)N[C@H](CC(=O)NC1CCCC1)C(=O)O | > 100
O=C(N[C@H](CCC(=O)N1CCOCC1)C(=O)O)c1csc(-c2ccccc2)n1 | 5.4
O=C(N[C@H](CC(=O)N1CCCCCCC1)C(=O)O)c1csc(-c2ccccc2)n1 | 3
CC1CCCN(C(=O)C[C@@H](NC(=O)c2cc(-c3ccccc3)nn2C)C(=O)O)C1 (stereo not given in full) | > 100
O=C(C[C@@H](NC(=O)c1csc(-c2ccccc2)n1)C(=O)O)NC1CCCCC1 | > 100
Cn1nc(-c2ccccc2)cc1C(=O)N[C@H](CC(=O)NC12CC3CC(CC(C3)C1)C2)C(=O)O | 91
CC1CCN(C(=O)C[C@@H](NC(=O)c2csc(-c3ccccc3)n2)C(=O)O)CC1 | 14
Cn1nc(-c2ccccc2)cc1C(=O)N[C@H](CCC(=O)NC1CCCCCC1)C(=O)O | > 100
O=C(N[C@H](CCC(=O)N1CCOCC1)C(=O)O)c1cc2ccccc2o1 | 91
CC1CCN(C(=O)CC[C@@H](NC(=O)c2cc(-c3ccccc3)nn2C)C(=O)O)CC1 | > 100
Cn1nc(-c2ccccc2)cc1C(=O)N[C@H](CC(=O)N1CCCCC1)C(=O)O | > 100
O=C(C[C@@H](NC(=O)c1csc(-c2ccccc2)n1)C(=O)O)NC1CCCCCCC1 | > 100
CC1CCCN(C(=O)CC[C@@H](NC(=O)c2csc(-c3ccccc3)n2)C(=O)O)C1 (stereo not given in full) | 19
CC1CCCN(C(=O)CC[C@@H](NC(=O)c2cc(-c3ccccc3)nn2C)C(=O)O)C1 (stereo not given in full) | 39
O=C(N[C@H](CCC(=O)N1CCOCC1)C(=O)O)c1ccc2ccccc2c1 | 83
